Reference: the NIST ThermoML archive (doi:10.1021/je301301j)
Numbers after ± are expanded uncertainties.

Experiment: molar heat capacity at constant pressure; xn = mol fraction of the nth substance listed
Conditions: 313.15 K, Liquid, Flow calorimetry

C=CCCCC [hex-1-ene] + CCCCO
molar heat capacity at constant pressure [J/K/mol]
Conditions	x2 = 0	x2 = 0.1001	x2 = 0.2	x2 = 0.3002	x2 = 0.3999	x2 = 0.5018	x2 = 0.5997	x2 = 0.7002	x2 = 0.7999	x2 = 0.9
100 kPa	188.8 ± 1.2	204.1 ± 1.3	208 ± 1.3	209.8 ± 1.3	210.3 ± 1.3	205.3 ± 1.3	203 ± 1.3	200.2 ± 1.2	198.3 ± 1.2	193.4 ± 1.2
5000 kPa	185.9 ± 1.1	199.9 ± 1.2	204.8 ± 1.3	206.6 ± 1.3	206.5 ± 1.3	202.6 ± 1.3	200.6 ± 1.2	197.6 ± 1.2	195.5 ± 1.2	192.5 ± 1.2
10000 kPa	183.1 ± 1.1	196.1 ± 1.2	201.3 ± 1.2	203.2 ± 1.3	203.8 ± 1.3	199.9 ± 1.2	197.8 ± 1.2	195.2 ± 1.2	193.1 ± 1.2	190.4 ± 1.2
15000 kPa	181.6 ± 1.1	193.2 ± 1.2	198.7 ± 1.2	200.9 ± 1.2	201.5 ± 1.2	197.5 ± 1.2	195.7 ± 1.2	194 ± 1.2	191.9 ± 1.2	188 ± 1.2
20000 kPa	179.6 ± 1.1	191 ± 1.2	196.2 ± 1.2	198.2 ± 1.2	199.5 ± 1.2	194.1 ± 1.2	193 ± 1.2	192 ± 1.2	190.4 ± 1.2	186.5 ± 1.2
25000 kPa	177.2 ± 1.1	188.1 ± 1.2	193.4 ± 1.2	194.5 ± 1.2	197 ± 1.2	192.9 ± 1.2	191.4 ± 1.2	189.4 ± 1.2	188.2 ± 1.2	185 ± 1.1
